Experimental data as given in patent US4130647A, “Methods for treating congestive heart failure and ischemic heart disease” (priority 1977, dated 1978).
“And” between values parts separate entries of the source, which are not always exact repeats. Equal entries are not always repeated.

Experiments:
[1] = system: patients with chronic left sided congestive heart failure; assay: Treadmill exercise duration until marked dyspnea, trimazosin (Example 3); format: in vivo, human; conditions: for improvement in exercise duration vs. placebo: p<0.025
Source text: Sixteen men between 41 and 66 years of age with chronic left sided congestive heart failure were subjects. Twelve patients had coronary heart disease with an old healed myocardial infarction, one patient had alcoholic cardiomyopathy, and three patients had idiopathic cardiomyopathy as the cause of their chronic heart failure. All 16 patients had cardiomegaly on physical examination and on their chest roentgenogram, a left ventricular third heart sound heard by auscultation, and evidence of pulmonary venous congestion on their chest roentgenogram. Their baseline standing blood pressures ranged between 114 and 150 mm. Hg. systolic and 72 and 100 mm. Hg. diastolic.
The patients received digitalis and diuretic therapy for 6 to 48 months. Their dose of digitalis and diuretic was not changed during this study. Except for potassium chloride, no other medications were taken by any of the 16 patients during this study. All patients signed informed consent forms.
After baseline measurements, all 16 patients received one capsule of single-blind placebo three times daily for two weeks. The patients then received in a double-blind, randomized study trimazosin or placebo for six weeks. Eight patients received one placebo capsule three times daily for weeks one and two, two placebo capsules three times daily for weeks three and four, and three placebo capsules three times daily for weeks five and six of the double-blind period. Seven patients received one 50 mg. trimazosin capsule three times daily for weeks one and two, two 50 mg. trimazosin capsules three times daily for weeks three and four, and three 50 mg. trimazosin capsules three times daily for weeks five and six of the double-blind period. One patient (patient number five on trimazosin) received one 50 mg. trimazosin capsule three times daily for 32 days. Their trimazosin dose was not increased after two weeks of this dose because their standing systolic blood pressure was 104/70 mm. Hg.
Two practice treadmill tests were performed by all patients prior to the baseline period. The patients performed a multi-stage uninterrupted treadmill exercise test until the onset of marked dyspnea in the baseline period, and approximately two hours after their morning dose of medication after two weeks of single-blind placebo, after three weeks of double-blindmedication, and after six weeks of double-blind medication. The patients exercised at a treadmill speed of 1.7 m.p.h. and a treadmill grade of 0% for the first 3 min., a treadmill speed of 1.7 m.p.h. and a treadmill grade of 10% for the next 3 min., at a treadmill speed of 2.5 m.p.h. and a treadmill grade of 12% for the third 3 min. period, and then at a treadmill speed of 3.4 m.p.h. and a treadmill grade of 14%.
The data listed in Tables 1-4 were analyzed using Student's t test for independent means. Fisher's exact test was used to analyze the data on improvement of symptoms and the data on changes in roentgenographic evidence of pulmonary venous congestion.

[2] = system: patients with congestive heart failure; assay: Hemodynamic effects of oral trimazosin in congestive heart failure (Example 2); format: in vivo, human
Description: Studies were performed in male patients with clinical and radiographic evidence of congestive heart failure due to ischemic or primary cardiomyopathy. To be eligible for the study patients had to have supine systolic blood pressure of at least 100 mm. Hg. and a supine resting cardiac index below 2.5 L/min./m^2, as measured by the non-invasive carbon dioxide rebreathing method [Franciosa, et al., J. Lab. Clin. Med., 88, 662 (1976) and Franciosa, et al., Circulation, 55, 449 (1977)]. Six patients met these criteria and were selected for the study.
After obtaining written informed consent, patients were entered into a 2 day dose finding period during which single daily doses of trimazosin were given and blood pressure and heart rate monitored for 4 hours. On day one 100 mg. was given; if no response or side effects occurred, 200 mg. was given the next day. For purposes of this study a response was defined as a fall in supine blood pressure to a level equal to 0.2 × control systolic pressure +76 mm. Hg. This formula was arbitrarily chosen so that patients with control systolic blood pressure as low as 100 mm. Hg. would be included, and their pressures could be reduced to 96 mm. Hg. Upon completion to the dose finding period, no trimazosin was given for the next 24 hours to allow for washout of previous doses. After this, hemodynamic studies were performed employing the predetermined doses; if 200 mg. of trimazosin was ineffective, 300 mg. was given for hemodynamic studies.
On the day of hemodynamic studies, diuretics and other vasodilators were withheld but maintenance digitalis doses were given in order to obtain a reasonably steady hemodynamic state. Procainamide was given to the one patient who had been taking it chronically. Right heart catheterization was performed using a triple lumen Swan-Ganz catheter which was inserted percutaneously via an antecubital or femoral vein and positioned with its tip in the pulmonary artery and the proximal lumen in the right atrium [Swan, et al,. N. Engl. J. Med., 283, 447 (1970)]. A brachial artery was cannulated with a short teflon catheter inserted over an 18-guage thin walled needle. Catheters were connected to P23Db Statham pressure transducers and pressures recorded on a Hewlett-Packard multichannel physiological recorder. Transducers were positioned at the mid-chest level with the patient supine, and all measurements were made in this position. Heart rate was monitored from the electrocardiogram. Cardiac outputs were measured by the dye-dilution method using indocyanine green injected into the pulmonary artery and sampled from the brachial artery through a Gilford densitometer connected to the recorder. Forearm venous capacitance was measured by occlusion plethysmography employing a Whitney mercury-in-rubber resistance guage [Cohen, et al., Clin. Sci., 30, 267 (1966) and Mason, et al., Circulation, 32, 756 (1965)]. For this determination, the forearm was elevated and suspended in a cradle. The venous occluding cuff was inflated to 30 mm. Hg. and forearm girth allowed to equilibrate over 2-3 minutes. The change in forearm girth at this point was taken as a measure of venous capacitance.
Hemodynamic measurements were made before and at hourly intervals for 4 hours after administration of trimazosin. Pulmonary wedge pressure was taken as occluded pulmonary arterial pressure or pulmonary arterial diastolic pressure. These were not interchanged and only one was used in any given patient. Systemic vascular resistance was calculated as the difference between means systemic arterial and right atrial pressures divided by cardiac output. Pulmonary vascular resistance was calculated as mean pulmonary arterial pressure divided by cardiac output. […]

[3] = 2 hours after trimazosin, individual patients

COc1cc2c(N)nc(N3CCN(C(=O)OCC(C)(C)O)CC3)nc2c(OC)c1OC [trimazosin, 2-hydroxy-2-methylpropyl 4-(4-amino-6,7,8-trimethoxy-2-quinazolinyl)-1-piperazinecarboxylate]
Double-blind trimazosin (3 weeks) exercise time ([1]; 300 mg. daily (patient 5: 150 mg. daily), individual patients): 180 s and 428 s and 398 s and 280 s and 298 s and 389 s and 476 s and 322 s | Double-blind trimazosin (6 weeks) exercise time ([1]; 450 mg. daily, individual patients): 232 s and 295 s and 406 s and 435 s and 627 s and 527 s and 363 s | Change from average of baseline and placebo exercise times ([1]; 3 weeks, 300 mg. daily (patient 5: 150 mg. daily), individual patients): +110% | Double-blind trimazosin (3 weeks) exercise time, mean ([1]; 3 weeks, mean, baseline/placebo average 255.5): 346.4 s | improvement in exercise duration vs. placebo ([1]; 3 weeks): significantly greater | Change from average of baseline and placebo exercise times ([1]; 6 weeks, 450 mg. daily, individual patients): +136% and +122% | Double-blind trimazosin (6 weeks) exercise time, mean ([1]; 6 weeks, 450 mg. daily, mean): 412.1 s | improvement in exercise duration vs. placebo ([1]; 6 weeks): significantly greater | cardiac index, patients not responding ([2]; 2 hours after trimazosin): failed to increase in 2 patients | pulmonary arterial pressures, patients responding ([2]; 2 hours after trimazosin): fell in every patient | Cardiac Index [2, 3]: 1.86 L/min./m^2 and 1.14 L/min./m^2 and 2.36 L/min./m^2 and 1.74 L/min./m^2 and 2.96 L/min./m^2 and 2.67 L/min./m^2 | Mean Pulmonary Arterial Pressure [2, 3]: 15 mm.Hg. and 39 mm.Hg. and 29 mm.Hg. and 49 mm.Hg. and 31 mm.Hg. and 40 mm.Hg. | Mean Systemic Arterial Pressure [2, 3]: 82 mm.Hg. and 78 mm.Hg. and 88 mm.Hg. and 87 mm.Hg. and 73 mm.Hg. | Pulmonary Vascular Resistance [2, 3]: 4 units and 18 units and 6 units and 15 units and 8 units | Pulmonary Wedge Pressure [2, 3]: 3 mm.Hg. and 28 mm.Hg. and 23 mm.Hg. and 37 mm.Hg. and 18 mm.Hg. and 34 mm.Hg. | Systemic Vascular Resistance [2, 3]: 23 units and 31 units and 16 units and 24 units and 15 units and 12 units | Heart Rate, mean ([2]; 2 hours after trimazosin, mean dose 183.3 mg., control 88.0, ns): 85.0 beats/min. | right atrial pressure ([2]; 2 hours after trimazosin, before 11.3 ± 2.1): 8.7 ± 1.6 mm. Hg. | Cardiac Index, mean ([2]; 2 hours after trimazosin, control 1.76, ns): 2.12 L/min./m^2 | Pulmonary Vascular Resistance, mean ([2]; 2 hours after trimazosin, control 15.8, P <0.05): 9.5 units | Systemic Vascular Resistance, mean ([2]; 2 hours after trimazosin, control 27.3, ns): 20.2 units | Pulmonary Wedge Pressure, mean ([2]; 2 hours after trimazosin, control 30.7, P <0.01): 23.8 mm.Hg. | Mean Pulmonary Arterial Pressure, mean ([2]; 2 hours after trimazosin, control 40.7, P <0.01): 33.8 mm.Hg. | Mean Systemic Arterial Pressure, mean ([2]; 2 hours after trimazosin, control 91.2, P <0.05): 82.5 mm.Hg. | pulmonary wedge pressure persistence ([2]; 4 hours after trimazosin): still significantly below control at 4 hours | Heart Rate ([2]; T = 2 hours after trimazosin (100-300 mg.), individual patients): 96 beats/min. and 84 beats/min. and 75 beats/min. and 81 beats/min. and 78 beats/min. | left ventricular function curve shift upward and leftward ([2]; after trimazosin): Only one patient failed to shift their left ventricular function curve upward and leftward | stroke volume ([2]; after trimazosin): stroke volume was increased | time of maximal increase of cardiac index ([2]; after trimazosin): 1 h | time of maximal reduction of pulmonary wedge pressure ([2]; after trimazosin): 2 h | time of peak decline of mean systemic arterial pressure ([2]; after trimazosin): 1.5 h | time of peak effects of the various hemodynamic parameters ([2]; after trimazosin): 1 to 3 h | diastolic pressure at peak effect ([2]; after trimazosin, control 74.8 ± 4.2, ns): 67.0 ± 2.9 mm. Hg. | systolic arterial pressure at peak effect ([2]; after trimazosin, control 128.3, p<0.05): 116.8 ± 9.2 mm. Hg. | heart rate change ([2]; following trimazosin): the decrease achieved statistical significance | right atrial pressure and forearm veins, patients responding ([2]; following trimazosin): Right atrial pressure fell and forearm veins dilated in every patient | right atrial pressure ([2]; one patient with normal pulmonary wedge pressure, fell from 5): 3 mm. Hg. | tachycardia ([2]; patients with congestive heart failure): did not produce tachycardia | cardiac output ([2]; patients with normal control cardiac output or normal control pulmonary wedge pressure): appeared to reduce cardiac output
